According to US7244738B2, “Arylamine-substituted quinazolinone compounds useful as alpha 1A/B adrenergic receptor antagonists” (Roche Palo Alto LLC, priority 2003, dated 2007):

Test system: anesthetized dog
Test: Dog in vivo intraurethral and blood pressure assay
Settings: anesthetized male Mongrel dog, i.v. bolus, increasing doses
Description: Dog In Vivo Intraurethral and Blood Pressure Assay
The following describes an in vivo assay for measuring the relative effect of test compounds on hypogastric nerve stimulation-induced increases in intraurethral pressure and phenylephrine-induced increases in diastolic blood pressure in anesthetized dog.
Male Mongrel dogs (10 to 20 kg) were fasted for 12 to 18 hours and anesthetized with phenobarbital sodium (36 mg/kg, i.v.). An endotracheal tube was inserted and thereafter the lungs were mechanically ventilated with room air. The right femoral vein was isolated and cannulated with two polyethylene cannulae, one for the administration of a continuous infusion of phenobarbital sodium (5 to 10 mg/kg/hr) and the other for bolus administration of test substances. The right femoral artery was isolated and cannulated to the abdominal aorta with a fluid filled polyethylene cannula connected to an external pressure transducer for monitoring diastolic aortic pressure (DAP). The bladder was exposed via a ventral midline abdominal incision and emptied of urine through a 22 gauge needle. The bladder was cannulated through a stab incision with a water filled balloon catheter connected to an external pressure transducer for monitoring prostatic intraurethral pressure (IUP). The right hypogastric nerve (HGN) was carefully isolated and attached to a Dastre's electrode for nerve stimulation. […]

COc1cc2nc(N3CCN(C(=O)c4ccco4)CC3)nc(N)c2cc1OC [prazosin]
inhibition of hypogastric nerve (HGN) stimulation-induced increases in intraurethral pressure (IUP): inhibited increases in IUP and DAP in similar fashion | inhibition of phenylephrine-induced increases in diastolic aortic pressure (DAP): inhibited increases in IUP and DAP in similar fashion
